These compounds were tested on J82 (assay: Cell panel screen (CellTiter-Glo)). Conditions: J82 (Urinary bladder), 20 micromolar, 72 hrs.
Type: cell-based, human
Outline: (§1)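 Compound, diluted from DMSO into culture medium, was added at a final 20 μM; control wells got equal DMSO. After 72 h, luminescent ATP signal was recorded and converted to percent inhibition.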

SMILES | Percent Inhibition
CC(C)=CCc1c(O)cc2oc3c(c(=O)c2c1O)C(CC=C(C)C)(CC=C(C)C)C(=O)C(O)=C3 [bn-2, Allanxanthone C] | 43%

What follows are compounds tested on HEC-1-A (assay: Cell panel screen (CellTiter-Glo)). Conditions: HEC-1-A (Uterus), 20 micromolar, 72 hrs.
Type: cell-based, human
Outline: as §1

SMILES | Percent Inhibition
CC(C)=CCc1c(O)cc2oc3c(c(=O)c2c1O)C(CC=C(C)C)(CC=C(C)C)C(=O)C(O)=C3 [bn-2, Allanxanthone C] | 51%

These compounds were tested on T98G (assay: Cell panel screen (CellTiter-Glo)). Conditions: T98G (Brain), 20 micromolar, 72 hrs.
Type: cell-based, human
Outline: as §1

SMILES | Percent Inhibition
CC(C)=CCc1c(O)cc2oc3c(c(=O)c2c1O)C(CC=C(C)C)(CC=C(C)C)C(=O)C(O)=C3 [bn-2, Allanxanthone C] | 98%

The compounds below were run on ChaGo-K-1 (assay: Cell panel screen (CellTiter-Glo)). Conditions: ChaGo-K-1 (Lung), 20 micromolar, 72 hrs.
Type: cell-based, human
Outline: as §1

SMILES | Percent Inhibition
CC(C)=CCc1c(O)cc2oc3c(c(=O)c2c1O)C(CC=C(C)C)(CC=C(C)C)C(=O)C(O)=C3 [bn-2, Allanxanthone C] | 75%

Each compound was assayed on A498 (assay: Cell panel screen (CellTiter-Glo)). Conditions: A498 (listed under Lung), 20 micromolar, 72 hrs.
Type: cell-based, human
Outline: as §1

SMILES | Percent Inhibition
CC(C)=CCc1c(O)cc2oc3c(c(=O)c2c1O)C(CC=C(C)C)(CC=C(C)C)C(=O)C(O)=C3 [bn-2, Allanxanthone C] | 34%

Each compound was assayed on HCC1937 (assay: Cell panel screen (CellTiter-Glo)). Conditions: HCC1937 (Breast), 20 micromolar, 72 hrs.
Type: cell-based, human
Outline: as §1

SMILES | Percent Inhibition
CC(C)=CCc1c(O)cc2oc3c(c(=O)c2c1O)C(CC=C(C)C)(CC=C(C)C)C(=O)C(O)=C3 [bn-2, Allanxanthone C] | 75%

These compounds were tested on CW-2 (assay: Cell panel screen (CellTiter-Glo)). Conditions: CW-2 (Colon), 20 micromolar, 72 hrs.
Type: cell-based, human
Outline: as §1

SMILES | Percent Inhibition
CC(C)=CCc1c(O)cc2oc3c(c(=O)c2c1O)C(CC=C(C)C)(CC=C(C)C)C(=O)C(O)=C3 [bn-2, Allanxanthone C] | 72%

Each compound was assayed on ZR-75-30 (assay: Cell panel screen (CellTiter-Glo)). Conditions: ZR-75-30 (Breast), 20 micromolar, 72 hrs.
Type: cell-based, human
Outline: as §1

SMILES | Percent Inhibition
CC(C)=CCc1c(O)cc2oc3c(c(=O)c2c1O)C(CC=C(C)C)(CC=C(C)C)C(=O)C(O)=C3 [bn-2, Allanxanthone C] | 86%

The compounds below were run on Bel-7402 (assay: Cell panel screen (CellTiter-Glo)). Conditions: Bel-7402 (Liver), 20 micromolar, 72 hrs.
Type: cell-based, human
Outline: as §1

SMILES | Percent Inhibition
CC(C)=CCc1c(O)cc2oc3c(c(=O)c2c1O)C(CC=C(C)C)(CC=C(C)C)C(=O)C(O)=C3 [bn-2, Allanxanthone C] | 64%

Each compound was assayed on C3A (assay: Cell panel screen (CellTiter-Glo)). Conditions: C3A (Liver), 20 micromolar, 72 hrs.
Type: cell-based, human
Outline: as §1

SMILES | Percent Inhibition
CC(C)=CCc1c(O)cc2oc3c(c(=O)c2c1O)C(CC=C(C)C)(CC=C(C)C)C(=O)C(O)=C3 [bn-2, Allanxanthone C] | 39%

The compounds below were run on RL95 (assay: Cell panel screen (CellTiter-Glo)). Conditions: RL95 (Uterus), 20 micromolar, 72 hrs.
Type: cell-based, human
Outline: as §1

SMILES | Percent Inhibition
CC(C)=CCc1c(O)cc2oc3c(c(=O)c2c1O)C(CC=C(C)C)(CC=C(C)C)C(=O)C(O)=C3 [bn-2, Allanxanthone C] | 70%

The compounds below were run on T47D (assay: Cell panel screen (CellTiter-Glo)). Conditions: T47D (Breast), 20 micromolar, 72 hrs.
Type: cell-based, human
Outline: as §1

SMILES | Percent Inhibition
CC(C)=CCc1c(O)cc2oc3c(c(=O)c2c1O)C(CC=C(C)C)(CC=C(C)C)C(=O)C(O)=C3 [bn-2, Allanxanthone C] | 54%

These compounds were tested on HCC1395 (assay: Cell panel screen (CellTiter-Glo)). Conditions: HCC1395 (Breast), 20 micromolar, 72 hrs.
Type: cell-based, human
Outline: as §1

SMILES | Percent Inhibition
CC(C)=CCc1c(O)cc2oc3c(c(=O)c2c1O)C(CC=C(C)C)(CC=C(C)C)C(=O)C(O)=C3 [bn-2, Allanxanthone C] | 84%

Each compound was assayed on MSTO-211-H (assay: Cell panel screen (CellTiter-Glo)). Conditions: MSTO-211-H (Lung), 20 micromolar, 72 hrs.
Type: cell-based, human
Outline: as §1

SMILES | Percent Inhibition
CC(C)=CCc1c(O)cc2oc3c(c(=O)c2c1O)C(CC=C(C)C)(CC=C(C)C)C(=O)C(O)=C3 [bn-2, Allanxanthone C] | 72%

Each compound was assayed on C8166 (assay: Cell panel screen (CellTiter-Glo)). Conditions: C8166 (Leukemia), 20 micromolar, 72 hrs.
Type: cell-based, human
Outline: as §1

SMILES | Percent Inhibition
CC(C)=CCc1c(O)cc2oc3c(c(=O)c2c1O)C(CC=C(C)C)(CC=C(C)C)C(=O)C(O)=C3 [bn-2, Allanxanthone C] | 86%

Each compound was assayed on BT-549 (assay: Cell panel screen (CellTiter-Glo)). Conditions: BT-549 (Breast), 20 micromolar, 72 hrs.
Type: cell-based, human
Outline: as §1

SMILES | Percent Inhibition
CC(C)=CCc1c(O)cc2oc3c(c(=O)c2c1O)C(CC=C(C)C)(CC=C(C)C)C(=O)C(O)=C3 [bn-2, Allanxanthone C] | 54%

The compounds below were run on NCI-H1694 (assay: Cell panel screen (CellTiter-Glo)). Conditions: NCI-H1694 (Lung), 20 micromolar, 72 hrs.
Type: cell-based, human
Outline: as §1

SMILES | Percent Inhibition
CC(C)=CCc1c(O)cc2oc3c(c(=O)c2c1O)C(CC=C(C)C)(CC=C(C)C)C(=O)C(O)=C3 [bn-2, Allanxanthone C] | 99%

What follows are compounds tested on BT-474 (assay: Cell panel screen (CellTiter-Glo)). Conditions: BT-474 (Breast), 20 micromolar, 72 hrs.
Type: cell-based, human
Outline: as §1

SMILES | Percent Inhibition
CC(C)=CCc1c(O)cc2oc3c(c(=O)c2c1O)C(CC=C(C)C)(CC=C(C)C)C(=O)C(O)=C3 [bn-2, Allanxanthone C] | 22%

The compounds below were run on HPAF-II (assay: Cell panel screen (CellTiter-Glo)). Conditions: HPAF-II (Pancreas), 20 micromolar, 72 hrs.
Type: cell-based, human
Outline: as §1

SMILES | Percent Inhibition
CC(C)=CCc1c(O)cc2oc3c(c(=O)c2c1O)C(CC=C(C)C)(CC=C(C)C)C(=O)C(O)=C3 [bn-2, Allanxanthone C] | 28%

What follows are compounds tested on HCC1599 (assay: Cell panel screen (CellTiter-Glo)). Conditions: HCC1599 (Breast), 20 micromolar, 72 hrs.
Type: cell-based, human
Outline: as §1

SMILES | Percent Inhibition
CC(C)=CCc1c(O)cc2oc3c(c(=O)c2c1O)C(CC=C(C)C)(CC=C(C)C)C(=O)C(O)=C3 [bn-2, Allanxanthone C] | 79%

These compounds were tested on NCI-H1623 (assay: Cell panel screen (CellTiter-Glo)). Conditions: NCI-H1623 (Lung), 20 micromolar, 72 hrs.
Type: cell-based, human
Outline: as §1

SMILES | Percent Inhibition
CC(C)=CCc1c(O)cc2oc3c(c(=O)c2c1O)C(CC=C(C)C)(CC=C(C)C)C(=O)C(O)=C3 [bn-2, Allanxanthone C] | 49%

What follows are compounds tested on Panc 03.27 (assay: Cell panel screen (CellTiter-Glo)). Conditions: Panc 03.27 (Pancreas), 20 micromolar, 72 hrs.
Type: cell-based, human
Outline: as §1

SMILES | Percent Inhibition
CC(C)=CCc1c(O)cc2oc3c(c(=O)c2c1O)C(CC=C(C)C)(CC=C(C)C)C(=O)C(O)=C3 [bn-2, Allanxanthone C] | 48%

The compounds below were run on NCI-H524 (assay: Cell panel screen (CellTiter-Glo)). Conditions: NCI-H524 (Lung), 20 micromolar, 72 hrs.
Type: cell-based, human
Outline: as §1

SMILES | Percent Inhibition
CC(C)=CCc1c(O)cc2oc3c(c(=O)c2c1O)C(CC=C(C)C)(CC=C(C)C)C(=O)C(O)=C3 [bn-2, Allanxanthone C] | 97%

The compounds below were run on NCI-H2347 (assay: Cell panel screen (CellTiter-Glo)). Conditions: NCI-H2347 (Lung), 20 micromolar, 72 hrs.
Type: cell-based, human
Outline: as §1

SMILES | Percent Inhibition
CC(C)=CCc1c(O)cc2oc3c(c(=O)c2c1O)C(CC=C(C)C)(CC=C(C)C)C(=O)C(O)=C3 [bn-2, Allanxanthone C] | 40%

These compounds were tested on SW13 (assay: Cell panel screen (CellTiter-Glo)). Conditions: SW13 (Adrenal gland), 20 micromolar, 72 hrs.
Type: cell-based, human
Outline: as §1

SMILES | Percent Inhibition
CC(C)=CCc1c(O)cc2oc3c(c(=O)c2c1O)C(CC=C(C)C)(CC=C(C)C)C(=O)C(O)=C3 [bn-2, Allanxanthone C] | 15%

The compounds below were run on TCCSUP (assay: Cell panel screen (CellTiter-Glo)). Conditions: TCCSUP (Urinary bladder), 20 micromolar, 72 hrs.
Type: cell-based, human
Outline: as §1

SMILES | Percent Inhibition
CC(C)=CCc1c(O)cc2oc3c(c(=O)c2c1O)C(CC=C(C)C)(CC=C(C)C)C(=O)C(O)=C3 [bn-2, Allanxanthone C] | 75%

These compounds were tested on HT-1197 (assay: Cell panel screen (CellTiter-Glo)). Conditions: HT-1197 (Urinary bladder), 20 micromolar, 72 hrs.
Type: cell-based, human
Outline: as §1

SMILES | Percent Inhibition
CC(C)=CCc1c(O)cc2oc3c(c(=O)c2c1O)C(CC=C(C)C)(CC=C(C)C)C(=O)C(O)=C3 [bn-2, Allanxanthone C] | 38%

Each compound was assayed on NCI-H2405 (assay: Cell panel screen (CellTiter-Glo)). Conditions: NCI-H2405 (Lung), 20 micromolar, 72 hrs.
Type: cell-based, human
Outline: as §1

SMILES | Percent Inhibition
CC(C)=CCc1c(O)cc2oc3c(c(=O)c2c1O)C(CC=C(C)C)(CC=C(C)C)C(=O)C(O)=C3 [bn-2, Allanxanthone C] | 40%

These compounds were tested on M059J (assay: Cell panel screen (CellTiter-Glo)). Conditions: M059J (Brain), 20 micromolar, 72 hrs.
Type: cell-based, human
Outline: as §1

SMILES | Percent Inhibition
CC(C)=CCc1c(O)cc2oc3c(c(=O)c2c1O)C(CC=C(C)C)(CC=C(C)C)C(=O)C(O)=C3 [bn-2, Allanxanthone C] | 51%

What follows are compounds tested on HGC-27 (assay: Cell panel screen (CellTiter-Glo)). Conditions: HGC-27 (Stomach), 20 micromolar, 72 hrs.
Type: cell-based, human
Outline: as §1

SMILES | Percent Inhibition
CC(C)=CCc1c(O)cc2oc3c(c(=O)c2c1O)C(CC=C(C)C)(CC=C(C)C)C(=O)C(O)=C3 [bn-2, Allanxanthone C] | 53%

The compounds below were run on Colo 205 (assay: Cell panel screen (CellTiter-Glo)). Conditions: Colo 205, 20 micromolar, 72 hrs.
Type: cell-based, human
Outline: as §1

SMILES | Percent Inhibition
CC(C)=CCc1c(O)cc2oc3c(c(=O)c2c1O)C(CC=C(C)C)(CC=C(C)C)C(=O)C(O)=C3 [bn-2, Allanxanthone C] | 69%

Each compound was assayed on HCC1569 (assay: Cell panel screen (CellTiter-Glo)). Conditions: HCC1569 (Breast), 20 micromolar, 72 hrs.
Type: cell-based, human
Outline: as §1

SMILES | Percent Inhibition
CC(C)=CCc1c(O)cc2oc3c(c(=O)c2c1O)C(CC=C(C)C)(CC=C(C)C)C(=O)C(O)=C3 [bn-2, Allanxanthone C] | 63%

What follows are compounds tested on A704 (assay: Cell panel screen (CellTiter-Glo)). Conditions: A704 (Kidney), 20 micromolar, 72 hrs.
Type: cell-based, human
Outline: as §1

SMILES | Percent Inhibition
CC(C)=CCc1c(O)cc2oc3c(c(=O)c2c1O)C(CC=C(C)C)(CC=C(C)C)C(=O)C(O)=C3 [bn-2, Allanxanthone C] | 4%

What follows are compounds tested on CCF-STTG1 (assay: Cell panel screen (CellTiter-Glo)). Conditions: CCF-STTG1 (Brain), 20 micromolar, 72 hrs.
Type: cell-based, human
Outline: as §1

SMILES | Percent Inhibition
CC(C)=CCc1c(O)cc2oc3c(c(=O)c2c1O)C(CC=C(C)C)(CC=C(C)C)C(=O)C(O)=C3 [bn-2, Allanxanthone C] | 52%

The compounds below were run on NCI-H28 (assay: Cell panel screen (CellTiter-Glo)). Conditions: NCI-H28 (Lung), 20 micromolar, 72 hrs.
Type: cell-based, human
Outline: as §1

SMILES | Percent Inhibition
CC(C)=CCc1c(O)cc2oc3c(c(=O)c2c1O)C(CC=C(C)C)(CC=C(C)C)C(=O)C(O)=C3 [bn-2, Allanxanthone C] | 52%

The compounds below were run on NCI-H1770 (assay: Cell panel screen (CellTiter-Glo)). Conditions: NCI-H1770 (Lung), 20 micromolar, 72 hrs.
Type: cell-based, human
Outline: as §1

SMILES | Percent Inhibition
CC(C)=CCc1c(O)cc2oc3c(c(=O)c2c1O)C(CC=C(C)C)(CC=C(C)C)C(=O)C(O)=C3 [bn-2, Allanxanthone C] | 90%

From paper PMC4450297, “Screening Active Compounds from Garcinia Species Native to China Reveals Novel Compounds Targeting the STAT/JAK Signaling Pathway” (BioMed Research International, 2015)
